Several values for one entry are separate records, joined by “and”; a condition that tells them apart may be missing. Equal entries are not always repeated.
Legend:
[1] = Optical density (clarity) of TQL-1055 in HP-β-CD solution; format: physicochemical; conditions: for Dissolution of TQL-1055: heat and sonication one hour at 60° C.
Method: (§1) Two solutions were prepared: (1) 15% w/v HP-β-CD in 1 ml of PBS, add TQL-1055 (crushed) to achieve 1 mg/ml; and (2) 20% w/v HP-β-CD in 1 ml of PBS; add TQL-1055 (crushed) to achieve 1 mg/ml. Both solutions were solubilized using heat and sonication for one hour at 60° C.
Optical density shown below. Clarity is defined against background solvent optical density ([…]):
Three solutions were prepared: (1) 15% w/v HP-β-CD in 1 ml of PBS, add TQL-1055 (crushed) to achieve 2 mg/ml; (2) 20% w/v HP-β-CD in 1 ml of PBS; add TQL-1055 (crushed) to achieve 2 mg/ml; and (3) 25% w/v HP-β-CD in 1 ml of PBS; add TQL-1055 (crushed) to achieve 2 mg/ml. Solutions were solubilized using heat and sonication for one hour at 60° C. […]

[2] = pH of TQL-1055 HP-β-CD solutions (Example 1); format: physicochemical
Method: as §1

[3] = Stability of TQL-1055 in HP-β-CD solution: clarity (optical density); format: physicochemical; conditions: 1 mg/ml TQL-1055, 20% w/v HP-β-CD in PBS
Method: (§2) Solutions containing 20% w/v HP-β-CD and 1 mg/ml dissolved TQL-1055 were prepared according to the following procedure: (1) crush TQL-1055 and sonicate in PBS; (2) add HP-β-CD solution to create a final concentration of 1 mg/ml TQL-1055, 20% HP-β-CD in PBS buffer (3) sonicate for ˜30-60 minutes at 60C (4) obtain a clear solution having 1 mg/ml TQL-1055; 20% w/v HP-R-CD. Control samples containing 20% HP-β-CD were prepared. Optical density and pH were measured at t=1 day, 1 week, 1 month, and 2 months. HPLC was conducted at t=1 day, 1 week, 1 month, and 2 months.

[4] = Stability of TQL-1055 in HP-β-CD solution: pH; format: physicochemical; conditions: 1 mg/ml TQL-1055, 20% w/v HP-β-CD in PBS
Method: as §2

[5] = Stability of TQL-1055 in HP-β-CD solution: HPLC; format: physicochemical; set-up: unit not given here; conditions: 1 mg/ml TQL-1055, 20% w/v HP-β-CD in PBS
Method: as §2

[6] = Solubility in water at physiological pH; format: physicochemical; conditions: free acid form
CD-i mice = conditions: mouse, in vivo
[7] = 1 mg/ml TQL-1055 in 15% w/v HP-β-CD in PBS, 48 hours (stored at 5° C.)
[8] = 1 mg/ml TQL-1055 in 15% w/v HP-β-CD in PBS, 48 hours (stored at RT)
[9] = 1 mg/ml TQL-1055 in 20% w/v HP-β-CD in PBS, 48 hours (stored at 5° C.)
[10] = 1 mg/ml TQL-1055 in 20% w/v HP-β-CD in PBS, 48 hours (stored at RT)
[11] = 2 mg/ml in 15% w/v HP-β-CD in PBS (solution 1)

Structure (SMILES): CC1O[C@@H](OC2C(O)[C@@H](NC(=O)CCCCCCCCCCC(=O)O)C(CO)O[C@H]2OC(=O)[C@]23CCC(C)(C)CC2C2=CCC4C5(C)CC[C@H](O)C(C)(C=O)C5CCC4(C)C2(C)CC3O)C(O)C(O)[C@H]1O[C@@H]1OC[C@@H](O)C(O)C1O (stereo partly shown) [TQL-1055]
- Optical density ([1]; 1 mg/ml TQL-1055 in 15% w/v HP-β-CD in PBS, 0 hour (after sonication)): 0.055
- Optical density ([1]; 1 mg/ml TQL-1055 in 15% w/v HP-β-CD in PBS, 24 hours (stored at 5° C.)): 0.051
- Optical density ([1]; 1 mg/ml TQL-1055 in 15% w/v HP-β-CD in PBS, 24 hours (stored at RT)): 0.051
- Optical density [1, 7]: 0.052
- Optical density [1, 8]: 0.051
- Optical density ([1]; 1 mg/ml TQL-1055 in 20% w/v HP-β-CD in PBS, 0 hour (after sonication)): 0.058
- Optical density ([1]; 1 mg/ml TQL-1055 in 20% w/v HP-β-CD in PBS, 24 hours (stored at 5° C.)): 0.050
- Optical density ([1]; 1 mg/ml TQL-1055 in 20% w/v HP-β-CD in PBS, 24 hours (stored at RT)): 0.050
- Optical density [1, 9]: 0.056
- Optical density [1, 10]: 0.051
- Dissolution of TQL-1055 ([1]; 1 mg/ml in 15% and in 20% w/v HP-β-CD in PBS): dissolved completely
- Optical density ([1]; 2 mg/ml TQL-1055 in 15% w/v HP-β-CD in PBS, 0 hour (after sonication), replicates): 0.083, 0.083, (2×) and 0.083 (n = 3)
- Optical density ([1]; 2 mg/ml TQL-1055 in 15% w/v HP-β-CD in PBS, 24 hours (stored at RT), replicates): 0.081, 0.081
- Optical density ([1]; 2 mg/ml TQL-1055 in 15% w/v HP-β-CD in PBS, 48 hours (stored at RT), replicates): 0.067 and 0.068
- Optical density ([1]; 2 mg/ml TQL-1055 in 20% w/v HP-β-CD in PBS, 0 hour (after sonication), replicates): 0.061 and 0.066 and 0.068 (n = 3)
- Optical density ([1]; 2 mg/ml TQL-1055 in 20% w/v HP-β-CD in PBS, 24 hours (stored at RT), replicates): 0.054, 0.054
- Optical density ([1]; 2 mg/ml TQL-1055 in 20% w/v HP-β-CD in PBS, 48 hours (stored at RT), replicates): 0.049 and 0.053
- Optical density ([1]; 2 mg/ml TQL-1055 in 25% w/v HP-β-CD in PBS, 0 hour (after sonication), replicates): 0.052 (n = 3) and 0.049 and 0.051
- Optical density ([1]; 2 mg/ml TQL-1055 in 25% w/v HP-β-CD in PBS, 24 hours (stored at RT), replicates): 0.053 and 0.054
- Optical density ([1]; 2 mg/ml TQL-1055 in 25% w/v HP-β-CD in PBS, 48 hours (stored at RT), replicates): 0.057 and 0.055
- Clarity of solution [1, 11]: not completely clear
- Optical density (OD) [1, 11]: > 0.060
- Dissolution of TQL-1055 ([1]; 2 mg/ml in 20% (solution 2) and 25% (solution 3) w/v HP-β-CD in PBS): dissolved completely
- pH [2, 7]: (pH = 7.26)
- pH [2, 8]: (pH = 7.28)
- pH [2, 9]: (pH = 7.28)
- pH [2, 10]: (pH = 7.21)
- Clarity (OD) ([3]; 5 C., 1 month): 0.0485 and 0.051
- Clarity (OD) ([3]; 5 C., 1 week): 0.051 and 0.053
- Clarity (OD) ([3]; 5 C., 2 month): 0.058 and 0.050
- Clarity (OD) ([3]; 5 C., Day 1): 0.054 and 0.053
- Clarity (OD) ([3]; 25 C., 1 month): 0.053 and 0.0455
- Clarity (OD) ([3]; 25 C., 1 week): 0.049 and 0.052
- Clarity (OD) ([3]; 25 C., 2 month): 0.051 and 0.05
- Clarity (OD) ([3]; 25 C., Day 1): 0.052 and 0.050
- Clarity (OD) ([3]; −20 C., 1 month): 0.049 and 0.0475
- Clarity (OD) ([3]; −20 C., 1 week): 0.05 and 0.051
- Clarity (OD) ([3]; −20 C., 2 month): 0.054
- Clarity (OD) ([3]; −20 C., Day 1): 0.056 and 0.052
- pH ([4]; 5 C., 1 month): 7.81 and 7.32
- pH ([4]; 5 C., 1 week): 7.32 and 7.25
- pH ([4]; 5 C., 2 month): 7.35 and 7.48
- pH ([4]; 5 C., Day 1): 7.47 and 7.43
- pH ([4]; 25 C., 1 month): 7.82 and 7.50
- pH ([4]; 25 C., 1 week): 7.35 and 7.00
- pH ([4]; 25 C., 2 month): 7.51 and 7.44
- pH ([4]; 25 C., Day 1): 7.45 and 7.47
- pH ([4]; −20 C., 1 month): 7.24 and 7.53
- pH ([4]; −20 C., 1 week): 7.19 and 7.26
- pH ([4]; −20 C., 2 month): 7.41 and 7.46
- pH ([4]; −20 C., Day 1): 7.35 and 7.41
- HPLC ([5]; 5 C., 1 month): 106.1 and 107.9
- HPLC ([5]; 5 C., 1 week): 104.4 and 108.9
- HPLC ([5]; 5 C., 2 months): 109 and 105
- HPLC ([5]; 5 C., Day 1): 105.4 and 109.4
- HPLC ([5]; 25 C., 1 month): 108.7 and 107.5
- HPLC ([5]; 25 C., 1 week): 109.2 and 106.9
- HPLC ([5]; 25 C., 2 months): 105
- HPLC ([5]; 25 C., Day 1): 106.1 and 109.4
- HPLC ([5]; −20 C., 1 month): 109.6
- HPLC ([5]; −20 C., 2 months): 105.3 and 102
- HPLC ([5]; −20 C., Day 1): 100 and 105.3
- solubility in water [6]: poor solubility in water at physiological pH
- Mortality (follow-on studies, text) (CD-i mice): did not result in mortality

From US20250025550A1, “ADJUVANT COMPOUNDS AND FORMULATIONS” (ADJUVANCE TECHNOLOGIES, INC., priority 2021, published 2025)
